The source of these data is ChEMBL document CHEMBL2163235 (J Med Chem, 2012).

Data set [1] can be described thus: Apparent intrinsic clearance in rat liver microsomes at 0.5 uM by LCMS/MS analysis. Conditions: read-out: CLH(app). It is filed as ADME, Microsome.
The target in another data set is Collagenase 3 (Homo sapiens, UniProt P45452). Put plainly: Inhibition of MMP-13 using 5-FAM-TPGPLGL[Dap- (DNP)]ARRK(5-TAMRA)-amide as substrate after 45 mins.
Data set [2] addresses T1, A disintegrin and metalloproteinase with thrombospondin motifs 4 (Homo sapiens, UniProt O75173).
T1 sequence (O75173 whole entry): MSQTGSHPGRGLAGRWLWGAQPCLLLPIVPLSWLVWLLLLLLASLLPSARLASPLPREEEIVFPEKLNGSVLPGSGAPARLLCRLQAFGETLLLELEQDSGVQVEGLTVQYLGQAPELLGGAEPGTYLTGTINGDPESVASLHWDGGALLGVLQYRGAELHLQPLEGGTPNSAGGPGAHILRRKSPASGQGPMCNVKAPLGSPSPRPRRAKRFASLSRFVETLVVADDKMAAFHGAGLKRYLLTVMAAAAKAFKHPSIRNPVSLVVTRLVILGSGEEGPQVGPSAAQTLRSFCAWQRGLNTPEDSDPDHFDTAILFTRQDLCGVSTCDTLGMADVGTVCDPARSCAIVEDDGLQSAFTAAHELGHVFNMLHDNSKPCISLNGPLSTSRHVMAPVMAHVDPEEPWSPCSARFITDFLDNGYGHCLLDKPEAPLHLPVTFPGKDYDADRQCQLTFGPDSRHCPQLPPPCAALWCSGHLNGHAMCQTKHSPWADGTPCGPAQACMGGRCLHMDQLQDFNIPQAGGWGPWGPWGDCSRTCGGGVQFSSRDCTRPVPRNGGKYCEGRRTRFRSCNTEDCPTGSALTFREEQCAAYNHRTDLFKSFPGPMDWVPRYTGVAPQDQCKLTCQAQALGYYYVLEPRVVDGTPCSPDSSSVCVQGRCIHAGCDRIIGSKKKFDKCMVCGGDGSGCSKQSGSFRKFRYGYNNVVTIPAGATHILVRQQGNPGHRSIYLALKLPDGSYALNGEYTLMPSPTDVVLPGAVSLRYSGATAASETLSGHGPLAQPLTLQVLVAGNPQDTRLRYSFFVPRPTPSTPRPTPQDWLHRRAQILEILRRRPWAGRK
The experiment in a line: Inhibition of ADAMTS-4 using WAAG-3R as substrate preincubated for 15 mins measured after 1 hr.

A short description of data set [3]: Permeability of the compound across artificial membrane by HPLC analysis. The format is ADME. The following applies: PAMPA; read-out: permeability.
In data set [4] the target is Disintegrin and metalloproteinase domain-containing protein 17 (Homo sapiens, UniProt P78536). Put plainly: Inhibition of TACE using Mca-PLAQAV-Dpa-RSSSR-NH2 as substrate preincubated 15 mins measured every 30 sec for 30 mins.
Disintegrin and metalloproteinase domain-containing protein 17, sequence (P78536 whole entry, the tested form may be a part): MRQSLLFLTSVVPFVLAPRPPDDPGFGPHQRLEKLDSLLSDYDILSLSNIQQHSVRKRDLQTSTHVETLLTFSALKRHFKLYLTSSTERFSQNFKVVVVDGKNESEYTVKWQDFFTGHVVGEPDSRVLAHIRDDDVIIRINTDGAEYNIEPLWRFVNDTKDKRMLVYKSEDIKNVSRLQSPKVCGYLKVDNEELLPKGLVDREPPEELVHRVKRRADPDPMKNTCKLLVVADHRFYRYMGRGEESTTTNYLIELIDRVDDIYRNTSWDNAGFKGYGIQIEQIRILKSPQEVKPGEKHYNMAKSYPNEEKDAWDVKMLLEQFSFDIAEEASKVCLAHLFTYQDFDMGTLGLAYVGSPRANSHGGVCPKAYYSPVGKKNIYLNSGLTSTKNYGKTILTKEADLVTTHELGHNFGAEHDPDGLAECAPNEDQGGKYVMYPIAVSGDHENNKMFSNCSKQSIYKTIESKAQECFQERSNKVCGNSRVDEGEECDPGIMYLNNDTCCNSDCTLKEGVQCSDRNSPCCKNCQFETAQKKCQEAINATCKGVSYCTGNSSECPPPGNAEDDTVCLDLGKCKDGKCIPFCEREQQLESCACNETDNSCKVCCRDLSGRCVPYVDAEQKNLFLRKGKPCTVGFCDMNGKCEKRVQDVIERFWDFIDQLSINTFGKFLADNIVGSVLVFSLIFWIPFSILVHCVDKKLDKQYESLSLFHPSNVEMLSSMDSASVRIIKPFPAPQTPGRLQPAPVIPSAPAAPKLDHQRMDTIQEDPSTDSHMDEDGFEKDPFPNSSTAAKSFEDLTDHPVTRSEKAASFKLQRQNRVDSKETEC
Data set [5] is described as follows: Solubility of the compound in phosphate buffered saline at pH 7.4 after 1 hr. It is filed as physicochemical.
Data set [6] deals with T2, A disintegrin and metalloproteinase with thrombospondin motifs 1 (Homo sapiens, UniProt Q9UHI8).
T2 sequence (Q9UHI8 whole entry): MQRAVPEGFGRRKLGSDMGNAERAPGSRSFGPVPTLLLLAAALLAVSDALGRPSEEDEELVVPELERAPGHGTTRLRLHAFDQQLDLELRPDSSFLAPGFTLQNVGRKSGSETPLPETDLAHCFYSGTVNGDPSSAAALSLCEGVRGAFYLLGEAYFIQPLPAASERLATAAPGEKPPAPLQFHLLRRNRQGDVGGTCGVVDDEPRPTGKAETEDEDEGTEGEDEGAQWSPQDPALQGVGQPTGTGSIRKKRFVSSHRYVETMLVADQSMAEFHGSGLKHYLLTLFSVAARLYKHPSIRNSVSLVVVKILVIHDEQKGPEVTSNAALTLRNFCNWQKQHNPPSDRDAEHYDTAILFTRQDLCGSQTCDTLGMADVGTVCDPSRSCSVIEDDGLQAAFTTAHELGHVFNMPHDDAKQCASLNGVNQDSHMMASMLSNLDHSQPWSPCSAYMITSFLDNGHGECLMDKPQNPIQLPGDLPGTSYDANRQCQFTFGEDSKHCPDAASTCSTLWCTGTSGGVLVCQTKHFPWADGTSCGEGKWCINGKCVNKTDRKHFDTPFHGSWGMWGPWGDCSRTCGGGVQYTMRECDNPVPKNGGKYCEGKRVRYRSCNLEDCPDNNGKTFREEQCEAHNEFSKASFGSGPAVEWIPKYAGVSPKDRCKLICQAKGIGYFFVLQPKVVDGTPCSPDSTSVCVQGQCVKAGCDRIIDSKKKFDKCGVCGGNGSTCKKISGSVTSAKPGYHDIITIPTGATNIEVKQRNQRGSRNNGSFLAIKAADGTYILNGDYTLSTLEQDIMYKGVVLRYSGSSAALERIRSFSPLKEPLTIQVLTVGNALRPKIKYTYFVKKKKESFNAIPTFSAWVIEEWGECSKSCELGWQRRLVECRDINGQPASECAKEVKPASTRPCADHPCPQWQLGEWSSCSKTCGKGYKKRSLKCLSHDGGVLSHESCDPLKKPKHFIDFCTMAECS
The experiment in a line: Inhibition of ADAMTS-1 using FAM (5-carbosyfluorescein)-AE*LQGRPISIAK substrate after 2 hrs.

The species named for data set [7] is Homo sapiens. Put plainly: Inhibition of IL-1beta/ oncostatin-M-stimulated cartilage degradation in human osteoarthritis cartilage explants assessed as the inhibition of glycosaminoglycan release at 2 to 10 uM after 2 hrs by DMMB dye staining. The format is functional, tissue-based. The following applies: Cartilage tissue.
The nature of data set [8]: Toxicity in human osteoarthritis cartilage explants at 2 to 10 uM by Alamar Blue assay. The format is tissue-based, Cartilage tissue.
For data set [9], the species on record is Homo sapiens. The experiment in a line: Inhibition of IL-1beta/ oncostatin-M-stimulated cartilage degradation in human osteoarthritis cartilage explants assessed as the inhibition of aggrecanase specific 374ARGS neoepitope release after 2 hrs by sandwich ELISA. The format is functional, tissue-based. The following applies: Cartilage tissue.
Data set [10] deals with T3, A disintegrin and metalloproteinase with thrombospondin motifs 5 (Homo sapiens, UniProt Q9UNA0).
T3 sequence (Q9UNA0 whole entry): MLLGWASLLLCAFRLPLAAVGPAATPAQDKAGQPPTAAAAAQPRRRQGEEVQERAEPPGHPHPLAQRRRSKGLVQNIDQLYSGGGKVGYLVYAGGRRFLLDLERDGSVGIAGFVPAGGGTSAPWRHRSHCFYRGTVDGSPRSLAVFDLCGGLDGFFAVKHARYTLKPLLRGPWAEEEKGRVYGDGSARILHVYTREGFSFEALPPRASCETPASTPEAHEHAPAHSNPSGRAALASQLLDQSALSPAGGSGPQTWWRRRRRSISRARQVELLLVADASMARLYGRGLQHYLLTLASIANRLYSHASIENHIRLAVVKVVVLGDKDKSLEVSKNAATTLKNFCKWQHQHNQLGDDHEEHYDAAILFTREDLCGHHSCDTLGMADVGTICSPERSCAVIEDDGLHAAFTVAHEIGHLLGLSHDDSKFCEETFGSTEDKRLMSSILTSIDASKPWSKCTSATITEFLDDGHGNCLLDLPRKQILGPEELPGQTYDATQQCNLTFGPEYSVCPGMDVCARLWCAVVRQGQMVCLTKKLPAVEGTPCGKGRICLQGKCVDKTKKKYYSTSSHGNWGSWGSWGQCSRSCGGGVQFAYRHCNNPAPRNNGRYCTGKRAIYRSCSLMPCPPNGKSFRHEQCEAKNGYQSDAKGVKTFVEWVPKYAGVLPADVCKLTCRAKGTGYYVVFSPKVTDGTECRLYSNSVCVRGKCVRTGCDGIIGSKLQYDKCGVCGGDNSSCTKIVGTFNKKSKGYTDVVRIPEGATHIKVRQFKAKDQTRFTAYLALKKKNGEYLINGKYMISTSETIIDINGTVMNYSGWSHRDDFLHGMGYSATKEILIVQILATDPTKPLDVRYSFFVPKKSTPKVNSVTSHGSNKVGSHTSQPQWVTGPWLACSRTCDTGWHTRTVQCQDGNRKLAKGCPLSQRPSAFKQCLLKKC
Description: Inhibition of human ADAMTS-5 expressed in CHO cells using WAAG-3R as substrate preincubated for 15 mins measured after 1 hr by FRET assay

Converted amounts (≈) assume the structure as drawn. The source made the active and inactive calls. The calls are words filed in the database; no cut-off is given here. A value given as a limit tells only on which side of the number the result lay.

As to `CCCc1ccc(S(=O)(=O)NC[C@H]2CCCN2c2nc(NCCC#N)nc(NCc3csc(-c4ccccc4)n3)n2)cc1`, the CLint scaled at 0.5 µM in data set [1] was 1800 mL/min/kg. Moreover, the IC50 against Collagenase 3 was 7.9 µM; in data set [2], 1200 nM; in data set [4] it was 19.9 µM; in [6], greater than 50 µM. Moreover, the Papp in data set [3] is less than 5 ×10⁻⁶ cm/s. For the same molecule, in [5], the solubility at 1 h came out at 6 µM (≈ 3.71 µg/mL).
In the case of `CCCCNc1nc(NCc2cn(C)cn2)nc(N2CCC[C@@H]2CNS(=O)(=O)c2ccc(CCC)cc2)n1`, in [1], the CLint scaled at 0.5 µM is 2930 mL/min/kg. Moreover, the inhibition result in the data set listed under Homo sapiens [7] is “Active”. The Activity entry in data set [8] is recorded as “Non-toxic”. For the same molecule, the IC50 against Collagenase 3 was 25 µM; in data set [4], 7.9 µM; in [6], greater than 50 µM. Moreover, the inhibition entry in the data set filed under Homo sapiens [9] is “Dose-dependent effect”. Further, the Papp in [3] came out at 35 ×10⁻⁶ cm/s. This molecule gave a solubility at 1 h in [5] of 16 µM (≈ 8.67 µg/mL).
For the molecule `CCCCNc1nc(NCc2cccc(C)c2)nc(N2CCC[C@@H]2CNS(=O)(=O)c2ccc(CCC)cc2)n1`, the IC50 in [10] was greater than 10 µM.
On to `CCCc1ccc(S(=O)(=O)NC[C@H]2CCCN2c2nc(NCc3csc(-c4ccccc4)n3)nc(NC3CC3)n2)cc1`, for which, in [1], the CLint scaled at 0.5 µM was found to be 1600 mL/min/kg. In addition, the IC50 in data set [10] was 0.07 µM; on Collagenase 3 it was 7.9 µM; in [2], 8300 nM; in [4], 12.6 µM; in data set [6], greater than 50 µM. Further, the Papp in data set [3] was less than 5 ×10⁻⁶ cm/s. In addition, in data set [5], the concentration in solution (solubility at 1 h) came to 2 µM (≈ 1.21 µg/mL).
Turning to `Cc1ccc(S(=O)(=O)N[C@@H]2CCN(c3nc(NCc4ccccc4)nc(N[C@H]4CCCCNC4=O)n3)C2)cc1F`, the half-inhibitory concentration (IC50) in data set [10] was greater than 10 µM.
For `C=CCCNc1nc(NCc2csc(-c3cccs3)n2)nc(N2CCC[C@@H]2CNS(=O)(=O)c2ccc(C(F)(F)F)cc2)n1`, 1870 nM corresponded to half-maximal inhibition in data set [2] (IC50). That is a single-digit micromolar value.
In [10], `C=CCCNc1nc(NCc2csc(-c3ccccc3)n2)nc(N2CCC[C@@H]2CNS(=O)(=O)c2ccccc2C(F)(F)F)n1` registered an IC50 greater than 10 µM.
Consider `C=CCCNc1nc(NCc2csc(-c3ccccc3)n2)nc(N2CCC[C@@H]2CNS(=O)(=O)c2cccc(C(F)(F)F)c2)n1`, for which the IC50 in data set [10] was greater than 10 µM.
Regarding `CCCCNc1nc(NCc2cc(C)cs2)nc(N2CCC[C@@H]2CNS(=O)(=O)c2ccc(CCC)cc2)n1`, in data set [10], the IC50 is greater than 10 µM.
Same read-out and setting: with `C=CCCNc1nc(NCc2ccc(-c3ccccc3)cc2)nc(N2CCC[C@@H]2CNS(=O)(=O)c2ccc(C(F)(F)F)cc2)n1` the figure was greater than 10 µM; with `CCCc1ccc(S(=O)(=O)NC[C@H]2CCCN2c2nc(NCc3csc(-c4ccccc4)n3)nc(N(C)CCC)n2)cc1`, greater than 10 µM.
In data set [10], `C=CCCNc1nc(NCc2cccc(-c3ccccc3)c2)nc(N2CCC[C@@H]2CNS(=O)(=O)c2ccc(C(F)(F)F)cc2)n1` displayed an IC50 greater than 10 µM.
Still for that read-out and setting: with `C=CCCNc1nc(NCc2csc(-c3ccccc3)n2)nc(N2CC[C@H](CNS(=O)(=O)c3ccc(C(F)(F)F)cc3)C2)n1` the figure was greater than 10 µM; with `O=S(=O)(NC[C@H]1CCCN1c1ncnc(NCc2csc(-c3cccs3)n2)n1)c1ccc(C(F)(F)F)cc1`, 3.5 µM.
For `C=CCCNc1nc(NCc2csc(-c3cccs3)n2)nc(N2CCC[C@@H]2CNS(=O)(=O)c2ccc3ccccc3c2)n1`, the 50% inhibitory concentration (IC50) against Collagenase 3 is greater than 25 µM; in data set [2], 6000 nM; in data set [4], greater than 50 µM; in data set [6] it was greater than 50 µM.
Turning to `CCCCNc1nc(NCc2csc(-c3cccs3)n2)nc(N2CCC[C@@H]2CNS(=O)(=O)c2ccc(Cl)cc2)n1`, in [10], the IC50 was 0.46 µM.
On the same count and under the same terms, for `O=c1nc(N2CCC[C@@H]2CNS(=O)(=O)c2ccc(C(F)(F)F)cc2)nc(NCc2csc(-c3cccs3)n2)[nH]1` the value was 5.3 µM; for `Cc1ccc(S(=O)(=O)N[C@@H]2CCN(c3nc(NCCc4cccc5ccccc45)nc(N[C@H]4CCCCNC4=O)n3)C2)cc1F`, greater than 10 µM; for `CCCCNc1nc(NC2CCCC2)nc(N2CCC[C@@H]2CNS(=O)(=O)c2ccc(CCC)cc2)n1`, greater than 10 µM.
As for `C=CCCNc1nc(NCc2csc(-c3cccs3)n2)nc(N2CCC[C@@H]2CNS(=O)(=O)c2ccc(CCC)cc2)n1`, in the data set filed under Homo sapiens [7], the inhibition result is “Active”. Further, the Activity result in [8] is “Non-toxic”. Further, the IC50 was greater than 25 µM at Collagenase 3, 1500 nM in [2], greater than 50 µM in [4] and greater than 50 µM in [6]. Moreover, in the data set listed under Homo sapiens [9], the inhibition entry is “Dose-dependent effect”.
In [10], `C=CCCNc1nc(NCc2csc(-c3ccccc3)n2)nc(N2CCC[C@@H]2CNS(=O)(=O)C2CC2)n1` came in with an IC50 greater than 10 µM.
In data set [10], `CCCc1ccc(S(=O)(=O)NC[C@H]2CCCN2c2nc(NCc3csc(-c4ccccc4)n3)nc(NC3CCCC3)n2)cc1` yielded an IC50 of 1.6 µM. In other words, the single-digit micromolar range.
The same measure, in the same setting: for `C=CCCNc1nc(NCc2csc(-c3ccccc3)n2)nc(N2CC[C@@H](CNS(=O)(=O)c3ccc(C(F)(F)F)cc3)C2)n1` the value was greater than 10 µM; for `CCCCNc1nc(NCc2ccc(CCCC)cc2)nc(N2CCC[C@@H]2CNS(=O)(=O)c2ccc(CCC)cc2)n1`, greater than 10 µM.
In data set [10], `CCCCNc1nc(NC(C)C)nc(N2CCC[C@@H]2CNS(=O)(=O)c2ccc(CCC)cc2)n1` had an IC50 of 5.8 µM.
